Tests used:
Mus musculus [1] = experiment: In vivo antithrombotic activity in Swiss mice was determined when the compound was administered at 30 umol/kg orally 1 hour prior to challenge; type: functional
Mus musculus [2] = experiment: In vivo increase in the bleeding time was determined when administered at 30 umol/kg orally 1 hour prior to challenge; type: functional

| Structure (SMILES) | Protection (Mus musculus [1]) [%] | Increase (Mus musculus [2]) [%] |
| --- | --- | --- |
| Cc1ccc(-c2cc(CN(CC(N)=O)Cc3ccccc3)no2)cc1 | 20 |  |
| CC(C)=CCC(C(N)=O)N(Cc1cccc(C)c1)Cc1cc(-c2ccc(C)cc2)on1 (configuration not stated) | 60 |  |
| NC(=O)C(Cc1c[nH]cn1)N(Cc1ccccc1)Cc1cc(-c2ccccc2)on1 (configuration not stated) | 50 | 81 |
| Cc1ccc(-c2cc(CN(Cc3ccccc3)C(CCCCN)C(N)=O)no2)cc1 (configuration not stated) | 40 |  |
| NC(=O)C(Cc1ccc(O)cc1)N(Cc1ccc(Br)cc1)Cc1cc(-c2ccccc2Cl)on1 (configuration not stated) | 60 |  |
| N#Cc1ccc(CN(Cc2cc(-c3ccccc3)on2)C(CCCNC(=N)N)C(N)=O)cc1 (configuration not stated) | 50 | 31 |
| NC(=O)C(Cc1c[nH]cn1)N(Cc1cccc(Br)c1)Cc1cc(-c2ccccc2)on1 (configuration not stated) | 40 |  |
| N#Cc1ccc(CN(Cc2cc(-c3ccccc3Cl)on2)C(CO)C(N)=O)cc1 (configuration not stated) | 10 |  |
| CC(C)=CCC(C(N)=O)N(Cc1ccc(C)cc1)Cc1cc(-c2ccccc2)on1 (configuration not stated) | 20 |  |
| NCCCCC(C(N)=O)N(Cc1ccc([N+](=O)[O-])cc1)Cc1cc(-c2ccccc2)on1 (configuration not stated) | 30 |  |
| CC(=O)Oc1ccccc1C(=O)O [ASPIRIN] | 40 | 110 |
| Cc1ccc(-c2cc(CN(Cc3cccc(Br)c3)C(Cc3c[nH]cn3)C(N)=O)no2)cc1 (configuration not stated) | 10 |  |
| Cc1ccc(-c2cc(CN(Cc3cccc([N+](=O)[O-])c3)C(CCCCN)C(N)=O)no2)cc1 (configuration not stated) | 20 |  |
| CC(C)=CCC(C(N)=O)N(Cc1ccc(C#N)cc1)Cc1cc(-c2ccccc2)on1 (configuration not stated) | 20 |  |
| N=C(N)NCCCC(C(N)=O)N(Cc1ccccc1)Cc1cc(-c2ccccc2Cl)on1 (configuration not stated) | 40 |  |
| Cc1ccc(-c2cc(CN(Cc3cccc(Br)c3)C(CCCCN)C(N)=O)no2)cc1 (configuration not stated) | 40 |  |
| NC(=O)C(Cc1ccc(O)cc1)N(Cc1ccc(Br)cc1)Cc1cc(-c2ccccc2)on1 (configuration not stated) | 20 |  |
| N#Cc1ccc(CN(Cc2cc(-c3ccccc3)on2)C(CCC(N)=O)C(N)=O)cc1 (configuration not stated) | 70 | 62 |
| NC(=O)C(Cc1ccccc1)N(Cc1ccc([N+](=O)[O-])cc1)Cc1cc(-c2ccccc2Cl)on1 (configuration not stated) | 20 |  |
| NC(=O)C(CO)N(Cc1ccc(Br)cc1)Cc1cc(-c2ccccc2Cl)on1 (configuration not stated) | 70 | 50 |
| Cc1ccc(-c2cc(CN(Cc3ccccc3)C(CO)C(N)=O)no2)cc1 (configuration not stated) | 60 | 79 |
| Cc1ccc(-c2cc(CN(Cc3ccc(C#N)cc3)C(Cc3ccc(O)cc3)C(N)=O)no2)cc1 (configuration not stated) | 20 |  |
| Cc1ccc(-c2cc(CN(Cc3ccccc3)C(Cc3ccc(O)cc3)C(N)=O)no2)cc1 (configuration not stated) | 60 | 20 |

| Structure (SMILES) | Protection (Mus musculus [1]) [%] | Increase (Mus musculus [2]) [%] |
| --- | --- | --- |
| N#Cc1ccc(CN(Cc2cc(-c3ccccc3Cl)on2)C(Cc2ccccc2)C(N)=O)cc1 (configuration not stated) | 50 | 0 |
| N#Cc1ccc(CN(Cc2cc(-c3ccccc3Cl)on2)C(CCCNC(=N)N)C(N)=O)cc1 (configuration not stated) | 90 | 87.5 |
| Cc1ccc(-c2cc(CN(Cc3ccc(C#N)cc3)C(CCCN=C(N)N)C(N)=O)no2)cc1 (configuration not stated) | 40 |  |
| NC(=O)C(CO)N(Cc1ccc(Br)cc1)Cc1cc(-c2ccccc2)on1 (configuration not stated) | 30 |  |
| Cc1ccc(-c2cc(CN(Cc3ccccc3)C(CCCN=C(N)N)C(N)=O)no2)cc1 (configuration not stated) | 10 |  |
| NC(=O)C(Cc1ccccc1)N(Cc1ccccc1)Cc1cc(-c2ccccc2Cl)on1 (configuration not stated) | 30 |  |
| NC(=O)C(Cc1ccccc1)N(Cc1ccccc1)Cc1cc(-c2ccccc2)on1 (configuration not stated) | 30 |  |
| Cc1ccc(CN(Cc2cc(-c3ccccc3)on2)C(Cc2c[nH]cn2)C(N)=O)cc1 (configuration not stated) | 40 |  |
| NC(=O)C(CO)N(Cc1ccccc1)Cc1cc(-c2ccccc2)on1 (configuration not stated) | 60 | 58 |
| N#Cc1ccc(CN(Cc2cc(-c3ccccc3Cl)on2)C(Cc2ccc(O)cc2)C(N)=O)cc1 (configuration not stated) | 40 |  |
| Cc1ccc(-c2cc(CN(Cc3cccc(C)c3)C(Cc3ccccc3)C(N)=O)no2)cc1 (configuration not stated) | 50 | 0 |
| N#Cc1ccc(CN(Cc2cc(-c3ccccc3)on2)C(CO)C(N)=O)cc1 (configuration not stated) | 30 |  |
| Cc1ccc(-c2cc(CN(Cc3ccc(C#N)cc3)C(CCCCN)C(N)=O)no2)cc1 (configuration not stated) | 40 |  |
| Cc1ccc(-c2cc(CN(Cc3ccc(C#N)cc3)C(CO)C(N)=O)no2)cc1 (configuration not stated) | 60 | 41 |
| Cc1ccc(-c2cc(CN(Cc3cccc([N+](=O)[O-])c3)C(Cc3c[nH]cn3)C(N)=O)no2)cc1 (configuration not stated) | 60 | 40 |
| Cc1ccc(-c2cc(CN(Cc3ccc(Br)cc3)C(CCCN=C(N)N)C(N)=O)no2)cc1 (configuration not stated) | 40 |  |
| NC(=O)C(Cc1c[nH]cn1)N(Cc1ccc([N+](=O)[O-])cc1)Cc1cc(-c2ccccc2)on1 (configuration not stated) | 60 | 30 |
| NC(=O)CCC(C(N)=O)N(Cc1ccc(Br)cc1)Cc1cc(-c2ccccc2Cl)on1 (configuration not stated) | 20 |  |
| N#Cc1ccc(CN(Cc2cc(-c3ccccc3)on2)C(Cc2c[nH]cn2)C(N)=O)cc1 (configuration not stated) | 50 | 80 |
| Cc1ccc(CN(Cc2cc(-c3ccccc3)on2)C(CCCCN)C(N)=O)cc1 (configuration not stated) | 20 |  |
| N=C(N)NCCCC(C(N)=O)N(Cc1ccc(Br)cc1)Cc1cc(-c2ccccc2)on1 (configuration not stated) | 80 | 25 |
| CC(C)=CCC(C(N)=O)N(Cc1ccccc1)Cc1cc(-c2ccccc2)on1 (configuration not stated) | 30 |  |
| NC(=O)C(Cc1ccccc1)N(Cc1ccc(Br)cc1)Cc1cc(-c2ccccc2)on1 (configuration not stated) | 20 |  |

Source: ChEMBL document CHEMBL1135176, “Combinatorial synthesis and biological evaluation of isoxazole-based libraries as antithrombotic agents” (2002)
